The record followed here is US11492335B2, “Aryl or heteroaryl triazolone derivatives or salts thereof, or pharmaceutical compositions comprising the same” (YUHAN CORPORATION, priority 2018, dated 2022).

Molecules are shown by their SMILES. Structures can show the parent of a compound that is named as a salt. A value given as a limit tells only on which side of the number the result lay.

The IC50 is the concentration that inhibits the measured activity by half.

Holding throughout (format): biochemical
For one assay, the target named is T1, recombinant human VAP-1 (Homo sapiens, UniProt Q16853).
T1 construct: purchased R&D systems
T1 sequence (Q16853 1-763): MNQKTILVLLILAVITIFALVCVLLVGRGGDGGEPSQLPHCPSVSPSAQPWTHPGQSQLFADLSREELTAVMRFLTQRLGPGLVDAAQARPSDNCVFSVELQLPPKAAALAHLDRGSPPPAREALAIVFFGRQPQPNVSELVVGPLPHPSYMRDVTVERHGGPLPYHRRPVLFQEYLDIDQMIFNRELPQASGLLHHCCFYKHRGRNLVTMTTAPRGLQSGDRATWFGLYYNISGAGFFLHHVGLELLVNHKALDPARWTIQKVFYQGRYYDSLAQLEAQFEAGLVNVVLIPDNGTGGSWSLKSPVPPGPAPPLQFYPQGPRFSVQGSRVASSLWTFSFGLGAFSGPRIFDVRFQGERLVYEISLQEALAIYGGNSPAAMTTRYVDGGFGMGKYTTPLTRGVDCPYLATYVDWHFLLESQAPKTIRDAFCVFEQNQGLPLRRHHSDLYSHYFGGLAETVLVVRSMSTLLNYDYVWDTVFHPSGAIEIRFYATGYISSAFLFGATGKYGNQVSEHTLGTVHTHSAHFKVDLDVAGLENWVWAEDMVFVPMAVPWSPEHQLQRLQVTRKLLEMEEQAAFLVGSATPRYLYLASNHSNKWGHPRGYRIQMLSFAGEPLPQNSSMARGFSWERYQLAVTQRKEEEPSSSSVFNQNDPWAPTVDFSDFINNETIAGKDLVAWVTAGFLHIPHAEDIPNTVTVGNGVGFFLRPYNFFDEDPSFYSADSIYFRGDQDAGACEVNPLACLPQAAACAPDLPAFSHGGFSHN
The assay can be described thus: Activity on recombinant human VAP-1, Amplex Red HRP-coupled hydrogen peroxide assay, benzylamine substrate. The settings on record: recombinant human VAP-1, benzylamine substrate, 30 min preincubation at 37° C.; read-out: Inhibitory Activity (IC50, nM) human VAP-1. The essentials: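 Dose-response IC50 determined from reduction in resorufin signal rate (544/590 nm, 1-2 h), with 30 min compound preincubation at 37 °C and 1 mM benzylamine as substrate.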

Assay [1] addresses T2, recombinant human MAO-A (monoamine oxidase-A) (Homo sapiens, UniProt P21397).
T2 construct: purchased Sigma-Aldrich
T2 sequence (P21397 1-527): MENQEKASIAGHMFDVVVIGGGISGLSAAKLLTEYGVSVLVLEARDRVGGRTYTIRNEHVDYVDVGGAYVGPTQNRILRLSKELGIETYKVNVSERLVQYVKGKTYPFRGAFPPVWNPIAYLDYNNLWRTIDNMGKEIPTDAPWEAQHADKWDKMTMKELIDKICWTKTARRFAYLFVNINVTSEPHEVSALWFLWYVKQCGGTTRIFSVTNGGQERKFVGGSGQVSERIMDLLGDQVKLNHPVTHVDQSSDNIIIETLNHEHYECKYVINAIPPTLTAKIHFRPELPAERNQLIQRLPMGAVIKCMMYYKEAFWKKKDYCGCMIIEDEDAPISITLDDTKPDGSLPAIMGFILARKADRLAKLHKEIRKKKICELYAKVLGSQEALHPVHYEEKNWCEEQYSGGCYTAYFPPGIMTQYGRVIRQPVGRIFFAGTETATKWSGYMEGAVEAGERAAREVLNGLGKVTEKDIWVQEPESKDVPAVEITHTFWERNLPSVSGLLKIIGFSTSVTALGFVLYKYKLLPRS
Description: Activity on recombinant human MAO-A, Amplex Red method, 0.5 mM tyramine substrate. The settings on record: 0.5 mM tyramine, read-out: Inhibitory Activity (IC50, nM) MAO-A. The essentials: (§1)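 Amplex Red/HRP coupled read-out of H2O2 with 0.5 mM tyramine for MAO-A or 1 mM benzylamine for MAO-B, following a 30-min compound–enzyme preincubation at 37° C. IC50 from percent inhibition of signal rate relative to uninhibited control.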

For assay [2], the target named is T3, recombinant human MAO-B (monoamine oxidase-B) (Homo sapiens, UniProt P27338).
T3 construct: purchased Sigma-Aldrich
T3 sequence (P27338 1-520): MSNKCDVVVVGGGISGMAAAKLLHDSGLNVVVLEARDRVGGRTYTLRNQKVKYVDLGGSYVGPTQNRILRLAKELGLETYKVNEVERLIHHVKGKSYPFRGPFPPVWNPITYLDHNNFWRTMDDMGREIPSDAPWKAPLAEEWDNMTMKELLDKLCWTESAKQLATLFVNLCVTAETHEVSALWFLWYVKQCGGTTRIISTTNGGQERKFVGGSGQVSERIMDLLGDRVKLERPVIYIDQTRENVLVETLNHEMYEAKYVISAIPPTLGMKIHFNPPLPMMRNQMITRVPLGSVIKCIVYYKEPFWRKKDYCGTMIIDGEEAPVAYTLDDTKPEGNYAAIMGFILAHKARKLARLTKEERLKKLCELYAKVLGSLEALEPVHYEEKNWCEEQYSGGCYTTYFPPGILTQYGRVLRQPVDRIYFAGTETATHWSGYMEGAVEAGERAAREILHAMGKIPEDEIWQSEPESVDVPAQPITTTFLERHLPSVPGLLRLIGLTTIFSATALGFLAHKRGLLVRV
The assay can be described thus: Activity on recombinant human MAO-B, Amplex Red method, 1 mM benzylamine substrate. Conditions: 1 mM benzylamine, read-out: Inhibitory Activity (IC50, nM) MAO-B. The essentials: as §1

The target of assay [3] is T4, recombinant human DAO (diamine oxidase) (Homo sapiens, UniProt P19801).
T4 construct: purchased R&D systems
T4 sequence (P19801 20-751): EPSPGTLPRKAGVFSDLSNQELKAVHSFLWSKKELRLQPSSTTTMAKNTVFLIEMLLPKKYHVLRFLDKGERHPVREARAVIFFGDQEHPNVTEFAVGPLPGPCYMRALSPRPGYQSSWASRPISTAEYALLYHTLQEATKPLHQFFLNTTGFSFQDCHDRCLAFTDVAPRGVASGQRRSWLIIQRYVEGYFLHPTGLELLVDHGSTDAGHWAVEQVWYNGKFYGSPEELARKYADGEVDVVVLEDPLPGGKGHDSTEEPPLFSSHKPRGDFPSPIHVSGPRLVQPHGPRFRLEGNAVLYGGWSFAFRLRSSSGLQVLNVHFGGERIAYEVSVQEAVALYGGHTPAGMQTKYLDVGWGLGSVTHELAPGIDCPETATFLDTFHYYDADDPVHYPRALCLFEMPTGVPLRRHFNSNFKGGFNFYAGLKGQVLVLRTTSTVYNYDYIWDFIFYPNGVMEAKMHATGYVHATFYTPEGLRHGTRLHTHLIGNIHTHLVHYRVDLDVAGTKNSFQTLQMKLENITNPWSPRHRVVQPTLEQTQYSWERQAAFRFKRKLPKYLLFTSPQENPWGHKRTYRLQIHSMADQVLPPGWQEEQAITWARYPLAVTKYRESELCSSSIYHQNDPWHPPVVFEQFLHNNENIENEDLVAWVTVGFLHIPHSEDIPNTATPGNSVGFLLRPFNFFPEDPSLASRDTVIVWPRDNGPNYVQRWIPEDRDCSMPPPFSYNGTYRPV
Description: Activity on recombinant human DAO, Amplex Red method, 1 mM putrescine substrate. Conditions: recombinant human DAO, 1 mM putrescine; * = between 10 and 100 nM, ** = between 300 and 1000 nM; read-out: Inhibitory Activity (IC50, nM) DAO. The essentials: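 Inhibition of recombinant human DAO (diamine oxidase, R&D systems) was assessed with the Amplex Red Hydrogen Peroxide Assay Kit. Hydrogen peroxide produced from 1 mM putrescine was detected through an HRP-coupled reaction that converts Amplex Red into fluorescent resorufin, read at 544 nm excitation and 590 nm emission. IC50 values came from four-parameter logistic fits in GraphPad Prism.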

As for `Cc1cc(Br)cnc1-n1cnn(C/C(=C/F)CN)c1=O` [Example 32, 2-[(2E)-2-(aminomethyl)-3-fluoroprop-2-en-1-yl]-4-(5-bromo-3-methylpyridin-2-yl)-2,4-dihydro-3H-1,2,4-triazol-3-one hydrochloride], the IC50 at recombinant human VAP-1 is 2.2 nM; in assay [1], 93000 nM; in assay [2], 51 nM; in assay [3], over 100000 nM.

Take `Cc1cc(-n2cnn(C/C(=C/F)CN)c2=O)ncc1Br` [Example 34, 2-[(2E)-2-(aminomethyl)-3-fluoroprop-2-en-1-yl]-4-(5-bromo-4-methylpyridin-2-yl)-2,4-dihydro-3H-1,2,4-triazol-3-one hydrochloride]: the IC50 at recombinant human VAP-1 amounted to 0.6 nM; in assay [1] it was 6100 nM; in assay [2], 363 nM; in assay [3], 13 nM.

Consider `NC/C(=C/F)Cn1ncn(-c2ncc(Br)cc2F)c1=O` [Example 35, 2-[(2Z)-2-(aminomethyl)-3-fluoroprop-2-en-1-yl]-4-(5-bromo-3-fluoropyridin-2-yl)-2,4-dihydro-3H-1,2,4-triazol-3-one hydrochloride], for which the IC50 at recombinant human VAP-1 was 6.6 nM; in assay [1] it was 1500 nM; in assay [2], 503 nM; in assay [3], 14 nM.

Consider `NC/C(=C\F)Cn1ncn(-c2ncc(Br)cc2F)c1=O` [Example 36, 2-[(2E)-2-(aminomethyl)-3-fluoroprop-2-en-1-yl]-4-(5-bromo-3-fluoropyridin-2-yl)-2,4-dihydro-3H-1,2,4-triazol-3-one hydrochloride], for which the IC50 at recombinant human VAP-1 was 1.2 nM; in assay [1], over 100000 nM; in assay [2], 3350 nM; in assay [3], 23 nM.

On to `NC/C(=C\F)Cn1ncn(-c2cccc(Br)n2)c1=O` [Example 37, 2-[(2E)-2-(aminomethyl)-3-fluoroprop-2-en-1-yl]-4-(6-bromopyridin-2-yl)-2,4-dihydro-3H-1,2,4-triazol-3-one], for which the IC50 at recombinant human VAP-1 is 1.8 nM; in assay [1], over 100000 nM; in assay [2], over 10000 nM; in assay [3], 16 nM.

Regarding `NC/C(=C\F)Cn1ncn(-c2cnc(Br)cn2)c1=O` [Example 38, 2-[(2E)-2-(aminomethyl)-3-fluoroprop-2-en-1-yl]-4-(5-bromopyrazin-2-yl)-2,4-dihydro-3H-1,2,4-triazol-3-one], the IC50 is 4.4 nM on recombinant human VAP-1, 19600 nM in assay [1], 112 nM in assay [2] and under 100 nM in assay [3].

Regarding `NC/C(=C/F)Cn1ncn(-c2nccs2)c1=O` [Example 39, 2-[(2Z)-2-(aminomethyl)-3-fluoroprop-2-en-1-yl]-4-(1,3-thiazol-2-yl)-2,4-dihydro-3H-1,2,4-triazol-3-one hydrochloride], the IC50 on recombinant human VAP-1 amounted to 1.7 nM; in assay [1], 5700 nM; in assay [2], 2100 nM; in assay [3], 30 nM.

For `NC/C(=C/F)Cn1ncn(-c2ncc(Br)s2)c1=O` [Example 40, 2-[(2Z)-2-(aminomethyl)-3-fluoroprop-2-en-1-yl]-4-(5-bromo-1,3-thiazol-2-yl)-2,4-dihydro-3H-1,2,4-triazol-3-one hydrochloride], the IC50 at recombinant human VAP-1 amounted to 1.1 nM; in assay [1], 80 nM; in assay [2] it was 619 nM; in assay [3], 25 nM.

Take `NC/C(=C\F)Cn1ncn(-c2ncc(Br)s2)c1=O` [Example 41, 2-[(2E)-2-(aminomethyl)-3-fluoroprop-2-en-1-yl]-4-(5-bromo-1,3-thiazol-2-yl)-2,4-dihydro-3H-1,2,4-triazol-3-one hydrochloride]: the IC50 at recombinant human VAP-1 came to 0.6 nM; in assay [1] it was 780 nM; in assay [2] it was 174 nM; in assay [3] it was 17 nM.

With `CC(=O)c1ccc(-c2ccc(-n3cnn(C/C(=C\F)CN)c3=O)cc2)s1` [Example 42, 4-[4-(5-acetylthiophen-2-yl)phenyl]-2-[(2Z)-2-(aminomethyl)-3-fluoroprop-2-en-1-yl]-2,4-dihydro-3H-1,2,4-triazol-3-one hydrochloride], the IC50 at recombinant human VAP-1 was 0.47 nM; in assay [1], 18400 nM; in assay [2], under 0.01 nM; in assay [3] it was 1 nM.

Take `NC/C(=C\F)Cn1ncn(-c2ccc(-c3ccc(-c4nnc[nH]4)cc3)cc2F)c1=O` [Example 43, 2-[(2E)-2-(aminomethyl)-3-fluoroprop-2-en-1-yl]-4-[3-fluoro-4′-(4H-1,2,4-triazol-3-yl)biphenyl-4-yl]-2,4-dihydro-3H-1,2,4-triazol-3-one]: the IC50 at recombinant human VAP-1 is 0.62 nM; in assay [1], over 100000 nM; in assay [2], 196 nM; in assay [3] it was under 100 nM.

Consider `NC/C(=C\F)Cn1ncn(-c2ccc(-c3cccc(-c4nnc[nH]4)c3)cc2F)c1=O` [Example 44, 2-[(2E)-2-(aminomethyl)-3-fluoroprop-2-en-1-yl]-4-[3-fluoro-3′-(4H-1,2,4-triazol-3-yl)biphenyl-4-yl]-2,4-dihydro-3H-1,2,4-triazol-3-one], for which the IC50 on recombinant human VAP-1 was 1.3 nM; in assay [1], 68300 nM; in assay [2] it was 65 nM; in assay [3], under 100 nM.
